{"source": "BindingDB's records for doi:10.1124/jpet.104.068320", "about": "(Actelion Pharmaceuticals, 2004)", "target": "T1, Urotensin-2 receptor (Rattus norvegicus, UniProt P49684)", "T1 sequence (P49684 whole entry)": "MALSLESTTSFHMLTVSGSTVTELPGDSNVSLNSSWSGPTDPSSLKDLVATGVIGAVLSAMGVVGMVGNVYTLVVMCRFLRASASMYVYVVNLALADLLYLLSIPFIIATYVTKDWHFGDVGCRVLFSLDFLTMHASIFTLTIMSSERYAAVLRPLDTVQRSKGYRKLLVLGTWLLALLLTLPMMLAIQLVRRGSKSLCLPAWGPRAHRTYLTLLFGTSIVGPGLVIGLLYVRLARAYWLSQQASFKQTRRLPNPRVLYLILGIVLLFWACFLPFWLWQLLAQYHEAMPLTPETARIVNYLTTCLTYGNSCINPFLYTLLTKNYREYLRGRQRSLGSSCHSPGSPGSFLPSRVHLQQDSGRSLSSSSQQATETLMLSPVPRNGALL"}
{"compound": "Cc1cc(NC(=O)NCCN2CCC(O)(Cc3ccccc3)CC2)c2ccccc2n1", "note": "[ACT-058362]", "values": [{"measurement": "Ki", "result": 1.47, "unit": "µM"}]}
